The source of these data is patent US6180621A, “Method and treatment using 1-methylcarbapenem derivatives as an anti-helicobacter pylori agent” (Sankyo Company, Limited, priority 1996, dated 2001).

Values after ≈ are worked out from the molar mass of the structure shown. Where two headings read alike, the source gives them in different places.

Assay [1] concerns helicobacter pylori. As to conditions: background, reported; cited from earlier work.
Assay [2] relates to helicobacter pylori. Kind of assay: In vitro activity against helicobacter pylori (MIC), agar plate. It counts as cell-based. The conditions noted are these: for MIC: Helicobacter pylori, 72 h, read-out: minimum inhibitory concentration (MIC). The method, then: In vitro activity against helicobacter pylon (MIC; μg/ml)
Helicobacter pylori (H. pylori) from storage was smeared on a 7%-equine-defibrinated-blood-added brain heart infusion agar (BHIA) plate and cultured at 37° C. for 72 hours under microaerophilic and wet conditions. The colonies thus grown were picked and suspended in physiological saline to prepare a culture solution of 10^8 CFU/ml (viable microbe cell number per ml). The resulting culture solution was diluted to 10 to 50-fold with physiological saline, and one spot (about 10 μl) of the solution was inoculated on each of medicament-containing and medicament-free BHIA plates. Each of the plates was cultured at 37° C. for 72 hours under microaerophilic and wet conditions and the minimum inhibitory concentration (MIC: μg/ml) at which the growth of the colonies was inhibited was measured.

For assay [3], the system named is helicobacter pylori 9470 strain. Kind of assay: Therapeutic effects for nude mouse infected with helicobacter pylori (viable microbe cell number, CFU/stomach). It counts as in vivo. The conditions noted are these: oral, once a day for 4 days, nude mice. Here is the method: Therapeutic effects for nude mouse infected with helicobacter pylon Bacteria (helicobacter pylori 9470 strain) used for the test, which were cultured for 48 hours in a 2%-fetal-calf-serum-added brucella broth, were centrifuged. After removal of the supernatant, the residue was re-suspended in a 1/10 amount of a brucella broth. The resulting suspended solution was orally administered to each of three to five nude mice in an amount of […] per mouse. 10 days after the infection, administration of a medicament was started. A 0.5% tragacanth suspension of a medicament was orally administered for 4 days through an oral catheter at a dose of 0.3 ml/mouse, once a day. On the day after the final administration, the stomach was extirpated, homogenized and then diluted. […] The significant difference of Medicament B(2), Medicament C(1) or C(2) is p<0.01 (vs the control group).

Setting [4] is: H. pylori strain 9470, 37° C., 72 hours, microaerophilic, BHIA plate.
[5] abbreviates: H. pylori strain 9472, 37° C., 72 hours, microaerophilic, BHIA plate.
The mark [6] stands for this setting: H. pylori strain 9474, 37° C., 72 hours, microaerophilic, BHIA plate.
Where [7] appears, read: H. pylori strain 9824, 37° C., 72 hours, microaerophilic, BHIA plate.
The mark [8] stands for this setting: H. pylori strain 9828, 37° C., 72 hours, microaerophilic, BHIA plate.

On to `CC1(C)S[C@@H]2[C@H](NC(=O)[C@H](N)c3ccc(O)cc3)C(=O)N2[C@H]1C(=O)O` [AMPC, amoxicillin], for which, in assay [1], the “effect against helicobacter pylori” value is listed as “effective against helicobacter pylori”. In addition, the MIC was determined as 12 ng/mL (≈ 0.0328 µM) in assay [2] (setting [4]); 25 ng/mL (≈ 0.0684 µM) in assay [2] (setting [5]); 50 ng/mL (≈ 0.137 µM) in assay [2] (setting [6]); 390 ng/mL (≈ 1.07 µM) in assay [2] (setting [7]); 200 ng/mL (≈ 0.547 µM) in assay [2] (setting [8]).

With `CC[C@H]1OC(=O)[C@H](C)[C@@H](O[C@H]2C[C@@](C)(OC)[C@@H](O)[C@H](C)O2)[C@H](C)[C@@H](O[C@@H]2O[C@H](C)C[C@H](N(C)C)[C@H]2O)[C@](C)(OC)C[C@@H](C)C(=O)[C@H](C)[C@@H](O)[C@]1(C)O` [CAM, clarithromycin], the “effect against helicobacter pylori” value in assay [1] was “effective against helicobacter pylori”. Besides, the “significant difference (p) vs the control group, viable microbe cell number (CFU/stomach)” value in assay [3] (10 mg/kg) is reported as less than 0.01. The MIC was found to be 6 ng/mL (≈ 0.00802 µM) in assay [2] (setting [4]); 6 ng/mL (≈ 0.00802 µM) in assay [2] (setting [5]); 25 ng/mL (≈ 0.0334 µM) in assay [2] (setting [6]); 1500 ng/mL (≈ 2.01 µM) in assay [2] (setting [7]); 6250 ng/mL (≈ 8.36 µM) in assay [2] (setting [8]).

`C[C@@H](O)[C@H]1C(=O)N2C(C(=O)[O-])=C(S[C@H]3CNC(=O)C3)[C@H](C)[C@H]12.[Na+]` [Compound 1, sodium (1R,5S,6S)-2-[(4R)-2-oxo-4pyrrolidinylthio]-6-[(1R)-1-hydroxyethyl]-1-methyl-1-carbapen-2-em-3-carboxylate]: the “minimum inhibitory concentration (MIC)” value in assay [2] (setting [5]), in assay [2] (setting [6]), in assay [2] (setting [7]) and in assay [2] (setting [8]) was not above 6 ng/mL throughout. The MIC in assay [2] is not above 6 ng/mL.

Regarding `C[C@@H](O)[C@H]1C(=O)N2C(C(=O)O)=C(S[C@@H]3CC(=O)N(C)C3)[C@H](C)[C@H]12` [Compound 2], the MIC in assay [2] (setting [4]) is not above 0.6 ng/mL; in assay [2] (setting [5]), not above 6 ng/mL; in assay [2] (setting [7]), not above 6 ng/mL; in assay [2] (setting [8]), not above 6 ng/mL.

Consider `C[C@@H](O)[C@H]1C(=O)N2C(C(=O)[O-])=C(S[C@H]3CC(=O)N(C)C3)[C@H](C)[C@H]12.[Na+]` [Compound 3, sodium (1R,5S,6S)-2-[(4S)-1-methyl-2-oxo-4-pyrrolidinylthio]-6-[(1R)-1-hydroxyethyl]-1-methyl-1-carbapen-2-em-3-carboxylate], for which the “minimum inhibitory concentration (MIC)” value in assay [2] (setting [5]), in assay [2] (setting [7]) and in assay [2] (setting [8]) was not above 6 ng/mL throughout. For the same molecule, the MIC in assay [2] was not above 6 ng/mL.

`C[C@@H](O)[C@H]1C(=O)N2C(C(=O)OCOC(=O)C(C)(C)C)=C(S[C@H]3CNC(=O)C3)[C@H](C)[C@H]12` [Compound 4, pivaloyloxymethyl (1R,5S,6S)-2-[(4R)-2-oxo-4-pyrrolidinylthio]-6-[(1R)-1-hydroxyethyl]-1-methyl-1-carbapen-2-em-3-carboxylate]: the “significant difference (p) vs the control group, viable microbe cell number (CFU/stomach)” value in assay [3] (1 mg/kg) and in assay [3] (10 mg/kg) was less than 0.01 in each case.

Turning to `O=C([O-])CC(O)(CC(=O)[O-])C(=O)[O-].[Bi+3]` [bismuth citrate], the “effect against helicobacter pylori” value in assay [1] is “effective against helicobacter pylori”.

For the molecule `Cc1ncc([N+](=O)[O-])n1CCO` [metronidazole], the “effect against helicobacter pylori” value in assay [1] is reported as “effective against helicobacter pylori”.

Consider `CN(C)C1C(=O)C(C(N)=O)=C(O)C2(O)C(=O)C3=C(O)c4c(O)cccc4C(C)(O)C3CC12` (stereo not shown) [tetracycline], for which the “effect against helicobacter pylori” value in assay [1] is on record as “effective against helicobacter pylori”.
